Test results from ChEMBL document CHEMBL1212907, “Activity of physalin F in a collagen-induced arthritis model” (J Nat Prod, 2010).
Calls of active or inactive are those of the source. The calls are words filed in the database; no cut-off is given here.

Assays:
Assay type in all cases: functional, organism-based
Mus musculus [1] = test: Antiinflammatory activity against collagen-induced arthritis in po dosed mouse assessed as synovial cell hyperplasia after 20 days
Mus musculus [2] = test: Antiinflammatory activity against collagen-induced arthritis in po dosed mouse assessed as inhibition of paw edema at 20 mg/kg, po after 20 days; set-up: dose 20 mg/kg
Mus musculus [3] = test: Immunomodulatory activity in ip dosed mouse lung assessed as reduction of eosinophils in bronchoalveolar lavage fluid
Mus musculus [4] = test: Immunomodulatory activity in mouse assessed as inhibition of allergic airway inflammation at 60 mg/kg, ip; set-up: dose 60 mg/kg
Mus musculus [5] = test: Immunomodulatory activity in ip dosed mouse lung assessed as reduction in modulation of mucus production at 60 mg/kg; set-up: dose 60 mg/kg
Mus musculus [6] = species: Mus musculus; test: Immunomodulatory activity in mouse assessed as reduction in ovalbumin-induced TH2 cytokine secretion by ELISA
Mus musculus [7] = test: Immunomodulatory activity in ip dosed mouse lung assessed as reduction in inhibition of ovalbumin-induced intense cell filtration

C[C@@]12C[C@H]3OC(=O)[C@@H]1CO[C@]14O[C@]5([C@H]2C1=O)[C@@](O)(CC[C@H]1[C@H]4C[C@H]2O[C@]24CC=CC(=O)[C@]14C)C(=O)O[C@@]35C
Activity (Mus musculus [1]): Active
inhibition (Mus musculus [2]): Active
Activity (Mus musculus [3]): inactive
inhibition (Mus musculus [4]): inactive
Activity (Mus musculus [5]): inactive
Activity (Mus musculus [6]): inactive
inhibition (Mus musculus [7]): Active

C[C@@H]1C[C@H]2[C@@H]3CCC4=CC(=O)C=C[C@]4(C)[C@@]3(F)[C@@H](O)C[C@]2(C)[C@@]1(O)C(=O)CO
Activity (Mus musculus [3]): Active
